{"source": "ChEMBL document CHEMBL5726269", "about": "“Phosphonate compounds for treatment of complement mediated disorders” (2017)", "molecular_target": "Complement factor D (Homo sapiens, UniProt P00746)", "sequence (P00746 whole entry)": "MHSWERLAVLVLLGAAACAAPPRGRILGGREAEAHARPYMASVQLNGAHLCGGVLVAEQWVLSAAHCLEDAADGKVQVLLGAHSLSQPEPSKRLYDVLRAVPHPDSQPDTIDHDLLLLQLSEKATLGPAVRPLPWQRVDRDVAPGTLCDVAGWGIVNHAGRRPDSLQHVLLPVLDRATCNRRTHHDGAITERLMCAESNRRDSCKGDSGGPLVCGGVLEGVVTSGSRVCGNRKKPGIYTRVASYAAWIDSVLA", "experiment": "Human Factor D Assay: Human factor D (purified from human serum, Complement Technology, Inc.) at 80 nM final concentration is incubated with test compound at various concentrations for 5 minutes at room temperature in 50 mM Tris, 1M NaCl, pH 7.5. A synthetic substrate Z-L-Lys-SBzl and DTNB (Ellman's reagent) are added to final concentrations of 100 μM each. The increase in color is recorded at OD405 nm in a microplate in kinetic mode over 30 minutes with 30 second time points in a spectrofluorimeter. IC50 values are calculated by non-linear regression from the percentage of inhibition of complement factor D activity as a function of test compound concentration.", "data": [{"smiles": "CC(=O)c1cn(CC(=O)N2C[C@H](F)C[C@H]2C(=O)NCc2cccc(Cl)c2F)c2cc(P(=O)(Oc3ccccc3)Oc3ccccc3)ccc12", "values": [{"measurement": "IC50", "value": "< 1000", "unit": "nM"}]}]}
